Laboratory results from patent US12383632B2, “Doxorubicin containing nanoplexes and uses thereof” (University of Maryland, Baltimore, priority 2019, dated 2025).

What was measured:
Ki67 = assay: Immunofluorescence of Ki67 in tumor sections; format: in vivo, mice
Method: Quantification of tumor cells staining positive for Ki67 with different treatment groups is shown, expressed as the percentage of Ki67 positive cells. The data represent the mean+SD of four HPF images (60×) for each treatment. **, p<0.01, ***, p<0.001. N=˜50 cells/image.
After the tumors were fixed and a heat-mediated antigen retrieval step was performed, the tumors were permeabilized (0.1% Triton X-100) for 10 min and then blocked with 5% BSA in 0.1% PBS-Tween for 2 h. […] Nuclear DNA was labeled with DAPI.

MDA-MB-435 = assay: In vivo tumor experiments, tumor size; parameters: species or system mice; settings: low dose 2.2 μg/injection, versus untreated controls
Method: MDA-MB-435 cells (4×10^6 cells per injection) were subcutaneously injected bilaterally into each mouse. After 4 days, when the subcutaneous tumors were about 45 mm3, the mice were separated into groups of 6 mice to determine the efficacy of treatments. The groups were as follows: untreated, nanoplex alone, low dose doxorubicin (2.2 μg/injection), high dose doxorubicin (4.4 μg/injection, low dose doxorubicin nanoplex (2.2 μg/injection), high dose doxorubicin nanoplex (4.4 μg/injection). The mice were given five intravenous injections of the various treatments. Nanoplexes were administered every 2 to 3 days (Monday, Wednesday, Friday). Tumor size was assessed with calipers before each injection and 2 days after the last injection; the size was calculated by formula ½×d1×d22, where d2 is the smaller of the two measurements. Mice were weighed before each injection with tumor weight subtracted to obtain the final weight.

For `COc1cccc2c1C(=O)c1c(O)c3c(c(O)c1C2=O)C[C@@](O)(C(=O)CO)C[C@@H]3O[C@H]1C[C@H](N)[C@H](O)[C@H](C)O1` [free doxorubicin, doxorubicin], the “tumor cells stained positive for Ki67” value (Ki67; high dose, 4.4 μg doxorubicin/injection) was “about 57%”, the “tumor cells stained positive for Ki67” value (Ki67; low dose, 2.2 μg doxorubicin/injection) was 80% and the “effect on growth / size of tumors (words)” value (MDA-MB-435) was “does not reduce the size of tumors”. For the same molecule, the “effect on growth / size of tumors (words)” value (MDA-MB-435; listed as doxorubicin) was “no effect”.
